Laboratory results as given in US20260272900A1 (Bayer Aktiengesellschaft, priority 2024, published 2026).

Tested on: patients with heart failure and left ventricular ejection fraction ≥40% (HFmrEF/HFpEF)
Assay type: in vivo
Settings: bilirubin Tertile 1 ≤0.4 mg/dL; N = 957

CCOc1ncc(C)c2c1[C@H](c1ccc(C#N)cc1OC)C(C(N)=O)=C(C)N2 [finerenone, (4S)-4-(4-cyano-2-methoxyphenyl)-5-ethoxy-2,8-dimethyl-1,4-dihydro-1,6-naphthyridine-3-carboxamide]
Total worsening HF events, event rate: 12.4 per 100 PY
